# Laboratory results from ChEMBL document CHEMBL3045944, “Synthesis and antibacterial evaluation of series of novel tri-substituted-s-triazine derivatives” (Med Chem Res, 2011).
# What was measured:
# Bacillus cereus = test: Antibacterial activity against Bacillus cereus NCIM 2156 after 24 hr by broth dilution method; type: functional; details: NCIM 2156, 24 h
# Staphylococcus aureus = test: Antibacterial activity against Staphylococcus aureus NCIM 2079 after 24 hr by broth dilution method; type: functional; details: NCIM 2079, 24 h
# [1] = Solubility of the compound in dilute acids; type: physicochemical
# [2] = Solubility of the compound in ethanol; type: physicochemical
# [3] = Solubility of the compound in ethyl acetate; type: physicochemical
# Escherichia coli = test: Antibacterial activity against Escherichia coli NCIM 2065 after 24 hr by broth dilution method; type: functional; details: NCIM 2065, 24 h
# [4] = Solubility of the compound in DMF; type: physicochemical
# [5] = Solubility of the compound in benzene; type: physicochemical
# [6] = Solubility of the compound in chloroform; type: physicochemical
# Bacillus subtilis = test: Antibacterial activity against Bacillus subtilis NCIM 2063 after 24 hr by broth dilution method; type: functional; details: NCIM 2063, 24 h
# Pseudomonas aeruginosa = test: Antibacterial activity against Pseudomonas aeruginosa NCIM 2036 after 24 hr by broth dilution method; type: functional; details: NCIM 2036, 24 h
# [7] = Solubility of the compound in acetic acid; type: physicochemical
# [8] = Solubility of the compound in DMSO; type: physicochemical
# Klebsiella pneumoniae = test: Antibacterial activity against Klebsiella pneumoniae NCIM 2706 after 24 hr by broth dilution method; type: functional; details: NCIM 2706, 24 h
# [9] = Solubility of the compound in water; type: physicochemical
MIC (Bacillus cereus),MIC (Staphylococcus aureus),solubility [1],solubility [2],solubility [3],MIC (Escherichia coli),solubility [4],solubility [5],solubility [6],MIC (Bacillus subtilis),MIC (Pseudomonas aeruginosa),solubility [7],solubility [8],MIC (Klebsiella pneumoniae),solubility [9],Structure (SMILES)
6.25 µg/mL,3.12 µg/mL,soluble,soluble,Insoluble,6.25 µg/mL,soluble,soluble,Insoluble,6.25 µg/mL,3.12 µg/mL,Insoluble,soluble,6.25 µg/mL,soluble,O=[N+]([O-])c1ccc(Nc2nc(Nc3ccc([N+](=O)[O-])cc3)nc(Nc3nc(-c4ccc([N+](=O)[O-])cc4)cs3)n2)cc1
25 µg/mL,50 µg/mL,soluble,soluble,soluble,12.5 µg/mL,soluble,soluble,soluble,100 µg/mL,3.12 µg/mL,Insoluble,soluble,25 µg/mL,soluble,O=[N+]([O-])c1ccc(-c2csc(Nc3nc(Nc4ccc(F)c(Cl)c4)nc(Nc4ccc(F)c(Cl)c4)n3)n2)cc1
50 µg/mL,100 µg/mL,Insoluble,soluble,Insoluble,50 µg/mL,Insoluble,soluble,Insoluble,50 µg/mL,100 µg/mL,soluble,soluble,50 µg/mL,soluble,Fc1ccc(Nc2nc(Cl)nc(Nc3ccc(F)cc3)n2)cc1
100 µg/mL,50 µg/mL,soluble,soluble,,100 µg/mL,,soluble,,100 µg/mL,100 µg/mL,soluble,soluble,100 µg/mL,soluble,Fc1ccc(Nc2nc(Cl)nc(Nc3ccc(F)c(Cl)c3)n2)cc1Cl
100 µg/mL,50 µg/mL,soluble,soluble,Insoluble,25 µg/mL,soluble,soluble,soluble,50 µg/mL,25 µg/mL,Insoluble,soluble,50 µg/mL,soluble,O=[N+]([O-])c1ccc(-c2csc(Nc3nc(Nc4ccc(F)cc4)nc(Nc4ccc(F)cc4)n3)n2)cc1
100 µg/mL,100 µg/mL,soluble,soluble,soluble,100 µg/mL,soluble,soluble,Insoluble,100 µg/mL,50 µg/mL,soluble,soluble,100 µg/mL,soluble,O=[N+]([O-])c1ccc(-c2csc(Nc3nc(Nc4ccc(Br)cc4)nc(Nc4ccc(Br)cc4)n3)n2)cc1
100 µg/mL,25 µg/mL,soluble,soluble,soluble,12.5 µg/mL,soluble,soluble,soluble,50 µg/mL,25 µg/mL,Insoluble,soluble,12.5 µg/mL,soluble,Fc1ccc(Nc2nc(Nc3ccc(F)c(Cl)c3)nc(Nc3nc(-c4ccc(Cl)cc4)cs3)n2)cc1Cl

# The next lines start with the compound.
Structure (SMILES),MIC (Bacillus cereus),MIC (Staphylococcus aureus),solubility [1],solubility [2],solubility [3],MIC (Escherichia coli),solubility [4],solubility [5],solubility [6],MIC (Bacillus subtilis),MIC (Pseudomonas aeruginosa),solubility [7],solubility [8],MIC (Klebsiella pneumoniae),solubility [9]
CN[C@@H]1[C@H](O[C@H]2[C@H](O[C@H]3[C@H](O)[C@@H](O)[C@H](N=C(N)N)[C@@H](O)[C@@H]3N=C(N)N)O[C@@H](C)[C@]2(O)C=O)O[C@@H](CO)[C@H](O)[C@H]1O [STREPTOMYCIN],3.12 µg/mL,3.12 µg/mL,,,,6.25 µg/mL,,,,6.25 µg/mL,3.12 µg/mL,,,6.25 µg/mL,
Clc1nc(Nc2ccc(Br)cc2)nc(Nc2ccc(Br)cc2)n1,100 µg/mL,100 µg/mL,soluble,soluble,soluble,100 µg/mL,Insoluble,soluble,Insoluble,100 µg/mL,100 µg/mL,soluble,soluble,100 µg/mL,Insoluble
Clc1ccc(Nc2nc(Cl)nc(Nc3ccc(Cl)cc3)n2)cc1,100 µg/mL,50 µg/mL,Insoluble,soluble,Insoluble,25 µg/mL,Insoluble,,soluble,50 µg/mL,50 µg/mL,soluble,soluble,25 µg/mL,Insoluble
Nc1nc(-c2ccc(Cl)cc2)cs1,,,soluble,soluble,soluble,,soluble,soluble,soluble,,,Insoluble,soluble,,soluble
O=[N+]([O-])c1ccc(-c2csc(Nc3nc(Nc4ccc(Cl)cc4)nc(Nc4ccc(Cl)cc4)n3)n2)cc1,12.5 µg/mL,25 µg/mL,soluble,soluble,Insoluble,12.5 µg/mL,soluble,soluble,Insoluble,25 µg/mL,6.25 µg/mL,Insoluble,soluble,6.25 µg/mL,soluble
Nc1nc(-c2ccc([N+](=O)[O-])cc2)cs1,,,soluble,soluble,soluble,,soluble,soluble,soluble,,,Insoluble,soluble,,soluble
O=[N+]([O-])c1ccc(Nc2nc(Cl)nc(Nc3ccc([N+](=O)[O-])cc3)n2)cc1,100 µg/mL,50 µg/mL,soluble,soluble,soluble,50 µg/mL,Insoluble,Insoluble,soluble,100 µg/mL,25 µg/mL,soluble,soluble,100 µg/mL,soluble
